According to patent publication US20120129842A1, “BISTHIAZOLE INHIBITORS OF PRO-MATRIX METALLOPROTEINASE ACTIVATION” (priority 2010, published 2012):

Tests used:
MMP9 = target: T1, MMP9 (Rattus norvegicus, UniProt P50282); test: Pro and active MMP9 in ankles of rats with SCW-induced arthritis by Western blot; assay type: in vivo; conditions: Day 26, four hours after AM dose, mAb-L51/82, FIG. 3A
T1 construct: Pro and active MMP9 were abundantly present in ankles of SCW-induced vehicle-treated rats; from tissue; host or cells: ankle (tibia-tarsus joint) homogenates of female Lewis rats
T1 sequence (P50282 108-708): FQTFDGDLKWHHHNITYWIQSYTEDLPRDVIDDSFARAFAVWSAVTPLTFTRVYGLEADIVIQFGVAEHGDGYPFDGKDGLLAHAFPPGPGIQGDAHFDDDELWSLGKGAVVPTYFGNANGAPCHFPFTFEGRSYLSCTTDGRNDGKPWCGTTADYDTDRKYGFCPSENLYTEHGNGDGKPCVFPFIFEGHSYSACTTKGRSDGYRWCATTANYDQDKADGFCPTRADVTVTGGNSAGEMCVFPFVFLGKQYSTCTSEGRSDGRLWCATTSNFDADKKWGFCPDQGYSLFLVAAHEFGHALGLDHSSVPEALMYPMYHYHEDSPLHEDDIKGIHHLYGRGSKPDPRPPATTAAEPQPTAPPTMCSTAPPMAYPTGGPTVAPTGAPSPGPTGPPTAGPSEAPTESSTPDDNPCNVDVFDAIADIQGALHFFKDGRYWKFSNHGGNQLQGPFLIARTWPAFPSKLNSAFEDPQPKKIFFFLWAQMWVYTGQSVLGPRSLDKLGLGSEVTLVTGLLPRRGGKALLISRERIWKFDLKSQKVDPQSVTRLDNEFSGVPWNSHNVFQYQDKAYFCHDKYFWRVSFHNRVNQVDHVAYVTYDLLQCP
Procedure: Hind-limbs were skinned, severed just above the tibia-tarsus joint and below the metatarsals, and the tibia-tarsus joints (ankles) were weighed, snap frozen and pulverized on dry ice using a hammer and anvil. The pulverized tissue was suspended in 3 volumes (w:v) of ice-cold homogenization buffer containing 50 mM Tris pH 7.5, 150 mM NaCl, 5 mM EDTA, 1% Triton X100, 0.05% Brij 30, 10% dimethylsulfoxide and Complete EDTA-free Protease Inhibitor Cocktail (Roche Diagnostics). The suspended tissue was homogenized sequentially with a Kinematica AG Polytron and a Dounce homogenizer. Homogenates were centrifuged at 16,000×g for 10 min at 4° C. and the soluble fractions were saved. Dimethylsulfoxide was removed from a portion of each soluble fraction using PD MiniTrap™ G-25 desalting columns (GE Healthcare). Homogenates (0.25 mL), free of DMSO, were diluted with an equal volume of binding buffer (i.e., homogenization buffer without dimethylsufoxide) and adjusted to contain 50 μL of a 50% slurry of gelatin-conjugated sepharose. Following 2 hours of rotation at 4° C. the beads were washed twice in binding buffer and eluted in 100 μL 2×-reducing Laemmli buffer with heating to 95° C. for 5 minutes. […]

proMMP9 = target: T2, proMMP9 (Rattus norvegicus, UniProt P50282); test: Activation of proMMP9 in rat synoviocyte cultures (Western blot); assay type: cell-based; conditions: 80 kD band, pAb-1246
T2 construct: endogenous in cells; host or cells: primary synoviocytes from arthritic female Lewis rats, TNFα-stimulated in collagen gels
T2 sequence (P50282 20-708 limits assumed): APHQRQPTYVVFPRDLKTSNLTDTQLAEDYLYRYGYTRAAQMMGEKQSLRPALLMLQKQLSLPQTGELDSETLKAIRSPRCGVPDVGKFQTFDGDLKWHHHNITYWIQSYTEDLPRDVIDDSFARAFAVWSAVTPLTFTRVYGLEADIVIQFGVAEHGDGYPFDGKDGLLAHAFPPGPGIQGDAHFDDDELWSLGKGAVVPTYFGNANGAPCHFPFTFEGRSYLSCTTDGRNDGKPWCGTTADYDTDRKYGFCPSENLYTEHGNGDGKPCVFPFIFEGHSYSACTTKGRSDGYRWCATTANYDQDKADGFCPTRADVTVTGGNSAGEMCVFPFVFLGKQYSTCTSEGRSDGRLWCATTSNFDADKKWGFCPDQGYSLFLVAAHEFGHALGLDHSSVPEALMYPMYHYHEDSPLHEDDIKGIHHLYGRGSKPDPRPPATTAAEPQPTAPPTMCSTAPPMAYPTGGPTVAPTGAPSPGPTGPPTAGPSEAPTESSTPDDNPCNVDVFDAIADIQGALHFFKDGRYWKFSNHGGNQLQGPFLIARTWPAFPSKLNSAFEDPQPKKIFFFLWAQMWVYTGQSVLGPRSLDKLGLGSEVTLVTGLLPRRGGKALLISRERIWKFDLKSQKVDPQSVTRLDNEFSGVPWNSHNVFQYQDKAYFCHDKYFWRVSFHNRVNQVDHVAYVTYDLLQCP
Text: A primary synoviocytes line was derived from the periarticular tissue of arthritic rats. Arthritis was induced in female Lewis rats following an i.p. administration of streptococcal cell wall peptidoglycan polysaccharides (J Exp Med 1977; 146:1585-1602). Rats with established arthritis were sacrificed, and hind-limbs were severed, immersed briefly in 70% ethanol, and placed in a sterile hood. The skin was removed and the inflamed tissue surrounding the tibia-tarsal joint was harvested using a scalpel. Tissue from six rats was pooled, minced to approximately 8 mm^3 pieces, and cultured in Dulbecco's Modified Eagle's Medium (DMEM) containing 15% fetal calf serum (FCS). In the following weeks, cells migrated out of the tissue piece, proliferated, and formed a monolayer of adherent cells. The synoviocytes were lifted from culture plates with 0.05% trypsin and passaged weekly at 1:4 ratios in DMEM containing 10% FCS. Synoviocytes were used at passage 9 to investigate the ability of Example 64 to inhibit the maturation of MMP9 to active form.
Rat synoviocytes spontaneously expressed and activated MMP9 when cultured in collagen gels and stimulated with tumor necrosis factor-alpha (TNFα) (FIG. 1 and Table 3). Eight volumes of an ice-cold solution of 3.8 mg/mL rat tail collagen (Sigma Cat #C3867-1VL) were mixed with 1 volume of 1 M sodium bicarbonate and 1 volume of 10× Roswell Park Memorial Institute medium. The pH of the mixture was adjusted to pH 7 with 1 N sodium hydroxide and equal volumes of the pH-adjusted collagen solution were mixed with DMEM containing 0.8 million synoviocytes per mL. One half mL volumes were dispensed into Costar 24-well culture dishes and placed for one hr at 37° C. and 5% CO2, during which time the collagen solution formed a gel. Individual gels were dislodged into wells of 12-well Costar plates containing 1 mL/well of DMEM adjusted to contain 0.05% BSA and 100 ng/mL mouse TNFα (R&D Systems Cat #410-MT-010). […] After overnight culture at 37° C. and 5% CO2, wells were adjusted to contain an additional 0.5 mL of DMEM containing 0.05% BSA and Example 64 at 4× the final desired concentration (final culture volumes were 2 mL). The plates were cultured an additional 48 hrs, at which time 1 mL of conditioned media were harvested into fresh eppendorf tubes containing 40 μL/mL of a 50% slurry of gelatin-conjugated sepharose (GE Healthcare Cat #17-0956-01). Samples were rotated for 2 hrs at 4° C. before centrifugation 1 min×200 g. Supernatants were discarded. The gelatin-sepharose pellets were washed once with 1 mL of ice cold DMEM, resuspended in 50 μL of 2× reducing Leamli buffer and heated 5 min at 95° C. […] Chemiluminesence signal was analyzed using a ChemiDoc imaging system (BioRad Laboratories) and Quantity One® image software. […]

Structure (SMILES): Cc1nc(C)c(-c2csc(Nc3cc(S(N)(=O)=O)ccc3OC(C)C)n2)s1 [Example 64, 3-(2′,4′-Dimethyl-[4,5′]bithiazolyl-2-ylamino)-4-isopropoxy-benzenesulfonamide.HBr]
- abundance of proMMP9 in ankles (MMP9): did not reduce the abundance of proMMP9
- inhibition at 0.37 µM (proMMP9; 0.37 μM): 12%
- inhibition at 1.1 µM (proMMP9; 1.1 μM): 46%
- inhibition at 3.3 µM (proMMP9; 3.3 μM): 86%
- inhibition at 10 µM (proMMP9; 10 μM): 97%
